The record followed here is patent US12552848B2, “Hydrochloride salts of C5a receptor agonist peptides” (Board of Regents of the University of Nebraska, priority 2017, dated 2026).

Non-standard residues stand in square brackets, D forms with d. No end group written: not given here. NMeL = CN[C@@H](CC(C)C)C(=O)O

For one experiment, the system named is mouse spleen cells. Description: 24-hour dose response: IL-6 release from mouse spleen cells (ELISA of supernatants). Format: cell-based. The following applies: for IL-6: 24 hrs incubation, mouse spleen cells, ± SD. On the procedure:
(§1) Salt forms of EP67 (SEQ ID NO:2) generated using the above procedures were incubated at varying concentrations with murine splenocytes over time.
A 24-hour dose response was investigated by incubating mouse spleen cells for 24 hrs with varying concentrations of the EP67 salts. Supernatants were collected and assayed for IL-6 by ELISA.

For the next experiment, the system named is mice spleen cells. Description: IL-6 kinetics: IL-6 release over time from mice spleen cells. The following applies: for IL-6: 100 μg/mL, mice spleen cells, ± SD. The class given is cell-based, mouse. On the procedure: as §1
Next, IL-6 kinetics were investigated by incubating mice spleen cells with 100 μg/mL of each salt form, and the release was examined over time.

For the substance “EP67•HCl: HCl salt form of EP67 (SEQ ID NO:2), a response selective C-terminal analog of C5a (YSFKDMP[NMeL][dA]R-OH; also: HCl salt)”, the IL-6 in the experiment on mouse spleen cells (0.1 μg/mL activator) is 176 ± 3 pg/mL; in the experiment with mouse spleen cells (1.0 μg/mL activator), 225 ± 1 pg/mL; in the experiment on mouse spleen cells (10 μg/mL activator) it was 738 ± 5 pg/mL; in the experiment with mouse spleen cells (100 μg/mL activator) it was 1163 ± 2 pg/mL; in the experiment on mice spleen cells (time collected 6 hr), 47 ± 1 pg/mL; in the experiment with mice spleen cells (time collected 24 hr), 1163 ± 2 pg/mL. Moreover, the IL-6 in the experiment with mice spleen cells (time collected 48 hr) came to 923 ± 6 pg/mL; with mice spleen cells (time collected 72 hr), 200 ± 11 pg/mL. Moreover, the “total amount of cytokine (IL-6) released from murine splenocytes, compared with other salt forms” value in the experiment with mouse spleen cells (varying concentrations, murine splenocytes) is “outperformed the acetate (OAc) and, particularly, the TEA salt forms”. The “kinetics of IL-6 release (time to maximal release), compared with other salt forms” value in the experiment with mice spleen cells (murine splenocytes, over time) is “maximal IL-6 release quicker than the other two salt forms”.
As for “EP67•OAc^−: acetate salt form of EP67 (SEQ ID NO:2), comparator salt (YSFKDMP[NMeL][dA]R-OH; also: acetate salt)”, the IL-6 was determined as 188 ± 1 pg/mL in the experiment with mouse spleen cells (0.1 μg/mL activator); 325 ± 23 pg/mL in the experiment on mouse spleen cells (1.0 μg/mL activator); 225 ± 20 pg/mL in the experiment with mouse spleen cells (10 μg/mL activator); 780 ± 9 pg/mL in the experiment on mouse spleen cells (100 μg/mL activator); 188 ± 1 pg/mL in the experiment with mice spleen cells (time collected 6 hr); 325 ± 23 pg/mL with mice spleen cells (time collected 24 hr). For the same substance, the IL-6 in the experiment with mice spleen cells (time collected 48 hr) is 900 ± 17 pg/mL.
For “EP67•TFA: TFA salt form of EP67 (SEQ ID NO:2), comparator salt (YSFKDMP[NMeL][dA]R-OH; also: TFA salt)”, the IL-6 in the experiment on mouse spleen cells (0.1 μg/mL activator) was found to be 178 ± 1 pg/mL; in the experiment on mouse spleen cells (1.0 μg/mL activator) it was 185 ± 2 pg/mL; with mouse spleen cells (10 μg/mL activator), 308 ± 7 pg/mL; with mouse spleen cells (100 μg/mL activator) it was 803 ± 6 pg/mL; with mice spleen cells (time collected 6 hr), 55 ± 1 pg/mL; in the experiment on mice spleen cells (time collected 24 hr), 803 ± 6 pg/mL. Moreover, the values for the IL-6 in the experiment on mice spleen cells (time collected 48 hr) and with mice spleen cells (time collected 72 hr) were 442 ± 13 pg/mL and 75 ± 6 pg/mL, respectively.
